# Test results: patent US20230150926A1, “CATIONIC LIPIDS FOR LIPID NANOPARTICLE DELIVERY OF THERAPEUTICS TO HEPATIC STELLATE CELLS” (GENEVANT SCIENCES GMBH, priority 2020, published 2023)
# Legend:
# [1] = test system: reelin mRNA (RELN), a stellate cell target; assay: Reelin (RELN) mRNA knock-down in liver after IV administration of siRNA LNP (QuantiGene, RELN:GAPD mRNA ratio); type: in vivo, Balb/C mice; conditions: for reelin mRNA knock-down, activity at high dose: 1 mg/kg dose and greater
# Description: The lipid solution contained 4 components: a PEG-conjugated lipid, an ionizable lipid, cholesterol, and a phospholipid (e.g., DSPC). Lipid stocks were prepared using the lipid identities and molar ratios as described. The siRNA was diluted in 100 mM acetate, pH 4 buffer to prepare lipid nanoparticles (LNP) at a total lipid to siRNA weight ratio of approximately 10:1 to 20:1. Equal volumes of the lipid and nucleic acid solutions were blended at a flow rate of 400 mL/min through a T-connector, and diluted into PBS, pH 7.4. The ethanol was then removed and the external buffer replaced with Tris/NaCl buffer by dialysis. Following dialysis, the formulations were concentrated using VivaSpin concentrator units (MWCO 100,000) and filtered through a 0.2 µm pore sterile filter. Nucleic acid concentration was determined by the RiboGreen assay. Particle size and polydispersity were determined using a Malvern Nano Series Zetasizer.
# Generally, the LNP formulations were injected intravenously at 0.025 mg/kg to female Balb/C mice (5-8 weeks old) to measure activity of the HSC-LNP. Just prior to injection, the siRNA LNP stocks were filtered and diluted down to the required dosing concentration. […] Half the left lateral lobe of the liver was collected into 1.5 mL RNALater and stored at 2-8° C. overnight. The next day, an approximately 20-25 mg piece of liver was homogenized and the liver lysate used in a QuantiGene Assay, testing for relative levels of mouse target mRNA and GAPDH expression. Data from each animal was normalized to the liver weight used in the assay, and then relative to the GAPDH signal; data is reported as the average % knockdown of each group (where the PBS control group is 100% gene expression, 0% knockdown).
# [2] = Tolerability assessment: serum liver enzyme levels (ALT/AST) after IV administration of LNP; type: in vivo, Balb/C mice; conditions: FIG. 4; 24 hours following IV administration of LNP; 0.03, 1, 3 mg/kg; relative to comparator lipid
# Description: Generally, the LNP formulations were injected intravenously at ~0.03 to 3 mg/kg to female Balb/C mice (5-8 weeks old) to assess tolerability of the HSC-LNP. Just prior to injection, the siRNA LNP stocks were filtered and diluted down to the required dosing concentration. At 2 h post-treatment, blood was collected via tail nicks and processed to plasma (for cytokine analysis by ELISA). At the terminal timepoint (24 h post-dose), blood was collected by cardiac puncture (target ≥ 800 µL) and sent to IDEXX for CRES 15 panel analysis (CBC/Diff & Clin Chem analysis). Briefly, blood (~300 uL) was collected into EDTA microtainer tubes, inverted 10x to mix the K2EDTA whole blood sample, and immediately stored at 4° C. to await same-day shipment to for hematology analysis. The remaining blood volume (~500 uL) was collected into serum separator tubes and inverted 5× to mix the SST sample, then allowed to clot for 1-1.5 h at room temp. The blood samples were centrifuged, and serum was collected for clinical chemistry analysis.
# [3] = FIG. 3, 24 hours following IV administration of LNP
Structure (SMILES),"reelin mRNA knock-down, activity at high dose [1, 3]",liver enzyme levels (ALT/AST) in serum [2],"knock-down as indicated by the RELN:GAPD mRNA ratio ([1]; FIG. 1, 0.1 mg/kg, versus comparator lipid and PBS)","reelin mRNA knock-down, potency relative to comparator lipid ([1]; FIG. 2, 48 hours following IV administration of LNP, Balb/C mice (n=4))","reelin mRNA knock-down, potency relative to comparator lipid ([1]; FIG. 3, 24 hours following IV administration of LNP, low dose of 0.03 mg/kg)","potency relative to comparator lipid, as restated in the tolerability figure ([1]; FIG. 4 legend, no dose stated)"
"CCCCC/C=C\CCCC(CCC/C=C\CCCCC)C(CCC/C=C\CCCCC)OC(=O)CCCCCN(C)C (stereo not shown) [compound 100, reference compound]",Saturating activity,–,–,–,–,–
CCCCC/C=C\CCCC(=O)OC(CCC/C=C\CCCCC)C(CCC/C=C\CCCCC)OC(=O)CCCCCN(C)C (stereo not shown) [representative lipid of the invention],Saturating activity,slightly higher liver enzyme levels relative to the comparator lipid,excellent knock-down,equivalent potency to a comparator lipid at 4-fold lower dose,significantly more potent than the comparator lipid,significantly more potent
